Experimental data taken from paper PMC3948622, “Docking, Synthesis and Antiproliferative Activity of N-Acylhydrazone Derivatives Designed as Combretastatin A4 Analogues” (PLoS ONE, 2014).
Where two headings read alike, the source gives them in different places.

Experiments:
[1] = tested on: HCT-8 (adenocarcinoma ileocecal); assay: In vitro antiproliferative MTT assay, HCT-8; type: cell-based
Procedure: (§1) The antiproliferative activity of compounds 5a–r was determined based on an MTT assay and using CA-4 as standard against the tumor cell lines: HL-60 (human leukemia), SF-295 (human glioblastoma), MDA-MB435 (melanoma), PC3M (prostate cancer), OVCAR-8 (ovaries adenocarcinoma), NCI-H258M (pulmonary bronchio-alveolar carcinoma) and HCT-8 (adenocarcinoma ileocecal) (Table 2). To determine the selectivity index of compounds 5a–r, their antiproliferative profile was also evaluated toward human lymphocytes (Table 2).
(§2) Compounds (0.009–5 µg/mL) were tested for cytotoxic activity against selected cancer cell lines: SF-295 (glioblastoma), HCT-8 (colon), MDAMB-435 (melanoma), HL60 (leukemia), PC3M (prostate cancer), OVCAR-8 (ovaries adenocarcinoma) and NCI-H258M (pulmonary bronchio-alveolar carcinoma). All cell lines were kindly obtained from the National Cancer Institute (Bethesda, MD, USA).Tumor cell proliferation was quantified through the ability of living cells to reduce the yellow dye 3-(4,5-dimethyl-2-thiazolyl)-2,5-diphenyl-2H-tetrazolium bromide (MTT, Sigma Aldrich)) to a purple formazan product and absorbance was measured at 595 nm (DTX-880, Beckman Coulter).

PC3M (prostate cancer) = assay: In vitro antiproliferative MTT assay, PC3M; type: cell-based
Procedure: as §1, §2

human lymphocytes = assay: In vitro antiproliferative assay, human lymphocytes; type: cell-based; conditions: Lymphocyte, Table 2
Procedure: as §1
To investigate the selective cytotoxic activity of the N-acylhydrazones derivatives (5a–r), their antiproliferative potency was also assessed toward human lymphocytes and the results were compared to the data from CA-4 ([…]). The selectivity index (SI), which was the IC50 for human lymphocytes/IC50 for cancer cell lines after treatment with CA-4 and N-acylhydrazones (5a–r), was calculated, as depicted in Table 3. […] The best comparative selectivity indices (CA-4 vs 5b) were obtained from the SF-295 (SI = 13), MDA-MB435 (SI = 42) and NCI-H258M (SI = 9.5) tumor cell lines, and the worst results were found for OVCAR-8 (SI = 0.5).

[2] = tested on: HCT-116 (colon carcinoma); assay: Hollow Fiber Assay (HFA), HCT-116 fibers s.c. in mice; type: in vivo, BALB/c nude mice; conditions: 4 days; for Proliferation (OD595 nm) HCT-116: mean ± S.E.M.
Procedure: Cell culture of SF-295 (glioblastoma) and HCT-116 (colon carcinoma) was performed in RPMI 1640 medium supplemented with 10% fetal bovine serum, 2 mM glutamine, at 37°C with 5% CO2.
Polyvinylidene fluoride (PVDF) HFs with a 1-mm internal diameter and a molecular weight cutoff point of 500 kDa were used (Spectrum Laboratories, Houston, TX). The fibers were cut into pieces 12–15 cm long, washed 2× with sterile distilled water and kept in sterile conditions.
Before use, under sterile conditions, the fibers were incubated in complete RPMI with 20% fetal bovine serum (FBS) overnight (packaging time). Cell viability was assessed by trypan blue exclusion assay. Then, a cell suspension of 7.0×10^6 cell/mL at 4°C was injected into the fiber, with the ends thereof immediately heat-sealed. The fibers were cut into 2 cm each, transferred to petri plates and incubated in complete RPMI medium for 24 h prior to implantation in mice. Each cell was injected into one fiber of a different color (HCT-116, yellow fibers; SF-295, blue fibers).
Each animal received 2 fibers at s.c. site. All incisions were sealed with a surgical stapler.
Tumor cell proliferation was quantified through the ability of living cells to reduce the yellow dye 3-(4,5-dimethyl-2-thiazolyl)-2,5-diphenyl-2H-tetrazolium bromide (MTT, Sigma Aldrich) to a purple formazan product. For this purpose, the fibers removed from animals were incubated with MTT 1 mg/mL in 6-well plates during 4 h at 37°C, 5% CO2 and 95% humidity. The MTT solution was aspirated; fibers were washed with saline solution containing protamine sulphate 2.5% and incubated in protamine solution overnight at 4°C. Fibers were transferred to 24 well plates, cut into 2 or 3 pieces and put to dry. The formazan was dissolved in […] of DMSO, aliquots (150 uL) were transferred to 96 well plates and absorbance was measured at 595 nm (DTX-880, Beckman Coulter).

BALB/c nude mice = conditions: for Survival: 4 days
Procedure: During the HFA, tumor cells (i.e., SF-295 and HCT-116) were cultivated within biocompatible, semipermeable polyvinylidene fluoride hollow fibers (HFs) and subcutaneously (s.c.) implanted within the dorsal portion of BALB/c nude mice. LASSBio-1586 (5b) and 5-Fluorouracil (5-FU), which was the positive control, were administered intraperitoneally for 4 consecutive days. On day 5, the fibers were removed to quantify the antiproliferative activity of 5b and 5-FU.
A total of 26 female BALB/c nude (nu/nu) mice aging 6–8 weeks were obtained from the animal facilities of State University of São Paulo (USP), Faculty of Medicine, São Paulo (SP), Brazil. They were kept in well-ventilated and sterile cages (Alesco, São Paulo) under standard conditions of light (12 h with alternative day and night cycles) and temperature (22±1°C) and were housed with access to commercial sterile rodent stock diet (Nutrilabor, São Paulo, Brazil) and water ad libitum. As previously mentioned procedures are in accordance with guidelines for the welfare of animals in experimental neoplasia and with national and international standard on the care and use of experimental laboratory animals and were approved by the local Ethical Committee on Animal Research (Process No. 102/2007).
Mice were anaesthetized with ketamine (90 mg/kg) - xylazine (4.5 mg/kg) (Sigma Aldrich). Groups were divided into: a) Negative control (DMSO 5%, n = 6); b) Positive control (5-Flouoruracil, 5-FU, 25 mg/kg/day, n = 7) (Sigma Aldrich); c) LASSBio-1586 (5b; 25 mg/kg/day, n = 7); d) LASSBio-1586 (5b; 50 mg/kg/day, n = 6). A small incision in the neck was incised to permit subcutaneous (s.c.) implantation of the fibers in the dorsal part of the animal. Each animal received 2 fibers at s.c. site. All incisions were sealed with a surgical stapler. The test compounds were administered intraperitoneally during 4 consecutive days. On day 5, fibers were removed to quantify the antiproliferative capacity as described above.

tumor cell lines = assay: In vitro antiproliferative MTT assay, tumor cell lines (summary over the panel); type: cell-based; conditions: summary in text over the cell lines of Table 2; read-out: IC50 (antiproliferative potency over the tumor cell lines)
Procedure: as §1, §2

MDA-MB435 (melanoma) = assay: In vitro antiproliferative MTT assay, MDA-MB435; type: cell-based; conditions: Homo sapiens, MDA-MB-435; Table 2; MTT
[3] = IC50 for human lymphocytes/IC50 for cancer cell line

COc1cc(C(=O)N/N=C/c2ccccc2)cc(OC)c1OC [Compound 5b, (E)-N′benzylidene-3,4,5-trimetoxybenzohydrazide]
IC50 ([1]; Homo sapiens, HCT-8, Table 2, MTT): 450 nM
SI Lymphocyte/ HCT-8 [1, 3]: 2.86±0.13
IC50 (PC3M (prostate cancer); Homo sapiens, PC-3M, Table 2, MTT): 800 nM
SI Lymphocyte/ PC3M (PC3M (prostate cancer); [3]): 1.60±0.10
IC50 (human lymphocytes): 1340 nM
Inhibition (%) HCT-116 ([2]; 25 mg/kg/day intraperitoneally): 82.89%
Proliferation (OD595 nm) HCT-116 ([2]; 25 mg/kg/day intraperitoneally): 0.26±0.04 OD595 nm
Inhibition (%) HCT-116 ([2]; 50 mg/kg/day intraperitoneally): 80.76%
Proliferation (OD595 nm) HCT-116 ([2]; 50 mg/kg/day intraperitoneally): 0.29±0.05 OD595 nm
Survival (BALB/c nude mice; 25 mg/kg/day intraperitoneally): 7/7
Survival (BALB/c nude mice; 50 mg/kg/day intraperitoneally): 6/6
deaths of mice during treatment (BALB/c nude mice; intraperitoneally for 4 consecutive days, HFA): no deaths occurred
IC50 (tumor cell lines): 64 to 800 nM
IC50 (MDA-MB435 (melanoma)): 64 nM
